This is an account of results in article PMC8151732, “Thiazole–Chalcone Hybrids as Prospective Antitubercular and Antiproliferative Agents: Design, Synthesis, Biological, Molecular Docking Studies and In Silico ADME Evaluation” (Molecules, 2021).

Values after ≈ are worked out from the molar mass of the structure shown. Like-named read-outs stand apart in the source and are kept apart here.

By MIC is commonly meant the lowest concentration that inhibits growth of the organism. In general, melting point refers to the temperature, or range, at which the solid turns liquid.

The subject of data set [1] is Mycobacterium tuberculosis H37Rv strain. Put plainly: Antitubercular activity, broth dilution MIC. Type of data set: cell-based. Conditions: for MIC: Mycobacterium tuberculosis, H37RV, 504 h, read-out: Mtb (H37Rv Strain) (MIC in µM); for MIC / Mtb (H37Rv Strain) (MIC in µM): broth dilution, 21 days at 37 °C, mean of three independent experiments, converted from µg/mL; for antitubercular activity of F compounds over the Cl-containing compounds: MIC 20.68 µM (9, 11) vs. 78.46 µM (1, 3); for antitubercular potency relative to the standard pyrazinamide: ratio of MICs, pyrazinamide MIC 25.34 ± 2 µM.

The test system of data set [2] is normal human liver cell lines (L02). Description: Cytotoxic activity on normal cells, MTT assay. Type of data set: cell-based. Particulars: for IC50: Homo sapiens, same protocol as DU-145, read-out: Normal Liver Cell Line (L02) (IC50 in µg/mL). In general terms: Tetrazolium dyes change colour on reduction, which living cells bring about.
Description: (§1) In both the assays, the IC50 values of the tested compounds were compared with the positive control Methotrexate (Mtx). The reduction of the soluble MTT to blue-color formazan is the principle underlined in MTT assay and such change is chiefly due to the action of intracellular mitochondrial reductase in the living cells. […] Later, the desired concentrations of the compounds were achieved by dissolving in sterile water. The cells were transferred on to 96-well plates at 100 µL total volume and with a density of 1 × 10^4 cells per well. The cells were permitted to adhere for a period of 24 h and then the assay medium was replaced with a fresh medium containing target compounds and incubated in DMEM with 10% fetal bovine serum (FBS) medium at 37 °C for an additional 48 h. Later, the medium was replaced with 90 μL of fresh DMEM without FBS. The above wells were treated with 10 μL of MTT reagent (5 mg/mL of stock solution in DMEM without FBS) and incubated for 3–4 h at 37 °C. The formed blue formazan crystals were dissolved in 200 μL of DMSO. The optical density was then determined at 570 nm using a micro plate reader. The assay was executed in triplicate for three independent experiments. […] The IC50 values measured in µg/mL for the antiproliferative were converted and expressed in µM. Additionally, all the compounds were also assessed for their cytotoxic activity on the normal human liver cell lines (L02) using the same protocol discussed above.
In data set [3] the test system is prostate cancer cell line (DU-145). Description: Antiproliferative activity, MTT assay. Conditions: mean ± SD (n = 3), converted from µg/mL.
Description: as §1
Where [4] appears, read: Homo sapiens, DU-145, 48 h, read-out: Prostate Cancer Cell Line (DU-145) (IC50 in µM), MTT, 48 h.
Setting [5] is: read-out: Prostate Cancer Cell Line (DU-145) (IC50 in µM), MTT, 48 h.

Regarding `O=C(/C=C/c1sc(Cl)nc1Cl)c1ccccc1Cl` [Compound 1, (E)-1-(2-chlorophenyl)-3-(2,4-dichlorothiazol-5-yl)prop-2-en-1-one], the melting point turned out to be 80 °C. In addition, the MIC in data set [1] amounted to 78.5 ± 1 µM (≈ 25 µg/mL). Moreover, the IC50 in data set [2] is over 70 µg/mL. The IC50 in data set [3] (setting [4]) turned out to be 100 ± 2 µM.
`O=C(/C=C/c1sc(Cl)nc1Cl)c1cccc(Cl)c1` [Compound 2, (E)-1-(3-chlorophenyl)-3-(2,4-dichlorothiazol-5-yl)prop-2-en-1-one] registered a melting point of 88 °C. Moreover, the MIC in data set [1] is 313.9 ± 1 µM (≈ 100 µg/mL). Further, the IC50 in data set [2] is over 70 µg/mL. The IC50 in data set [3] (setting [4]) was 1607 ± 2 µM.
On the same counts, the results for `O=C(/C=C/c1sc(Cl)nc1Cl)c1ccc(Cl)cc1` [Compound 3, (E)-1-(4-chlorophenyl)-3-(2,4-dichlorothiazol-5-yl)prop-2-en-1-one] are 104 °C, 78.5 ± 1 µM (≈ 25 µg/mL), over 70 µg/mL and 401.8 ± 1 µM.
Consider `O=C(/C=C/c1sc(Cl)nc1Cl)c1cccc(Cl)c1Cl` [Compound 4, (E)-1-(2,3-dichlorophenyl)-3-(2,4-dichlorothiazol-5-yl)prop-2-en-1-one], for which the melting point is 89 °C. The MIC in data set [1] was found to be 142 ± 2 µM (≈ 50 µg/mL). In addition, the IC50 in data set [2] was over 70 µg/mL. Moreover, the IC50 in data set [3] (setting [4]) was 181.3 ± 1 µM.
Turning to `O=C(/C=C/c1sc(Cl)nc1Cl)c1cc(Cl)ccc1Cl` [Compound 6, (E)-1-(2,5-dichlorophenyl)-3-(2,4-dichlorothiazol-5-yl)prop-2-en-1-one], the melting point was determined as 84 °C. In addition, the MIC in data set [1] came to 141.6 ± 1 µM (≈ 50 µg/mL). The IC50 in data set [2] was over 70 µg/mL. In addition, in data set [3] (setting [4]), the IC50 stood at 2900.5 ± 2 µM.
In the case of `O=C(/C=C/c1sc(Cl)nc1Cl)c1ccc(Cl)c(Cl)c1` [Compound 8, (E)-1-(3,4-dichlorophenyl)-3-(2,4-dichlorothiazol-5-yl)prop-2-en-1-one], the melting point stood at 106 °C. In data set [1], the MIC stood at 141.6 ± 1 µM (≈ 50 µg/mL). In data set [2], the IC50 was over 70 µg/mL. In addition, the IC50 in data set [3] (setting [4]) turned out to be 1450.3 ± 1 µM.
The molecule `O=C(/C=C/c1sc(Cl)nc1Cl)c1ccccc1F` [Compound 9, (E)-1-(2-fluorophenyl)-3-(2,4-dichlorothiazol-5-yl)prop-2-en-1-one] showed a melting point of 91 °C. Moreover, in data set [1], the “antitubercular activity of F compounds over the Cl-containing compounds” value amounted to 3.79 fold and the MIC was 20.7 ± 2 µM (≈ 6.25 µg/mL). The IC50 in data set [2] was over 70 µg/mL. Moreover, in data set [3] (setting [4]), the IC50 came to 53 ± 2 µM.
In the case of `O=C(/C=C/c1sc(Cl)nc1Cl)c1cccc(F)c1` [Compound 10, (E)-1-(3-fluorophenyl)-3-(2,4-dichlorothiazol-5-yl)prop-2-en-1-one], the melting point was 112 °C. In addition, the MIC in data set [1] was determined as 165.5 ± 1 µM (≈ 50 µg/mL). In addition, the IC50 in data set [2] was over 70 µg/mL. In addition, the IC50 in data set [3] (setting [4]) was determined as 423.6 ± 2 µM. In data set [3] (setting [5]), the IC50 was determined as 847.3 ± 2 µM.
The molecule `O=C(/C=C/c1sc(Cl)nc1Cl)c1ccc(F)cc1` [Compound 11, (E)-1-(4-fluorophenyl)-3-(2,4-dichlorothiazol-5-yl)prop-2-en-1-one] gave a melting point of 126 °C. In data set [1], the “antitubercular activity of F compounds over the Cl-containing compounds” value is 3.79 fold, the MIC was 20.7 ± 2 µM (≈ 6.25 µg/mL) and the “Mtb (H37Rv Strain) (MIC in µM)” value is listed as 20.68 ± 1 µM. Further, the IC50 in data set [2] was over 70 µg/mL. Also, the IC50 in data set [3] (setting [4]) worked out at 847.3 ± 2 µM. Also, the IC50 in data set [3] (setting [5]) worked out at 423.6 ± 2 µM.
Molecule `O=C(/C=C/c1sc(Cl)nc1Cl)c1ccc(F)cc1F` [Compound 12, (E)-1-(2,4-difluorophenyl)-3-(2,4-dichlorothiazol-5-yl)prop-2-en-1-one] showed a melting point of 134 °C. Also, in data set [1], the minimum inhibitory concentration (MIC) amounted to 2.43 µM (≈ 0.778 µg/mL), the “Mtb (H37Rv Strain) (MIC in µM)” value was 2.43 ± 1 µM and the “antitubercular potency relative to the standard pyrazinamide” value came to 10.42 times. The IC50 in data set [2] was over 70 µg/mL. In addition, the IC50 in data set [3] (setting [4]) was 100 ± 1 µM.
The molecule `O=C(/C=C/c1sc(Cl)nc1Cl)c1cc(F)ccc1F` [Compound 13, (E)-1-(2,5-difluorophenyl)-3-(2,4-dichlorothiazol-5-yl)prop-2-en-1-one] displayed a melting point of 129 °C. In addition, the MIC in data set [1] stood at 39 ± 1 µM (≈ 12.5 µg/mL). Besides, in data set [2], the IC50 is over 70 µg/mL. In addition, the IC50 in data set [3] (setting [4]) was 3198.7 ± 2 µM.
Turning to `O=C(/C=C/c1sc(Cl)nc1Cl)c1c(F)cccc1F` [Compound 14, (E)-1-(2,6-difluorophenyl)-3-(2,4-dichlorothiazol-5-yl)prop-2-en-1-one], the melting point was 141 °C. In data set [1], the MIC amounted to 9.74 ± 2 µM (≈ 3.12 µg/mL) and the “antitubercular potency relative to the standard pyrazinamide” value amounted to 2.6 times. Further, the IC50 in data set [2] was over 70 µg/mL. Besides, the IC50 in data set [3] (setting [4]) is 25 ± 2 µM.
As for `O=C(/C=C/c1sc(Cl)nc1Cl)c1ccc(F)c(F)c1` [Compound 15, (E)-1-(3,4-difluorophenyl)-3-(2,4-dichlorothiazol-5-yl)prop-2-en-1-one], the melting point was found to be 145 °C. For the same molecule, the MIC in data set [1] is 39 ± 1 µM (≈ 12.5 µg/mL). In data set [2], the IC50 is over 70 µg/mL. Moreover, the IC50 in data set [3] (setting [4]) amounted to 799.7 ± 1 µM.
For `O=C(/C=C/c1sc(Cl)nc1Cl)c1cc(F)cc(F)c1` [Compound 16, (E)-1-(3,5-difluorophenyl)-3-(2,4-dichlorothiazol-5-yl)prop-2-en-1-one], the melting point was found to be 109 °C. Besides, in data set [1], the MIC stood at 156 ± 2 µM (≈ 50 µg/mL). Moreover, in data set [2], the IC50 is over 70 µg/mL. The IC50 in data set [3] (setting [4]) stood at 3198.7 ± 1 µM.
Taken in the same sequence, the figures for `O=C(/C=C/c1sc(Cl)nc1Cl)c1ccccn1` [Compound 17, (E)-3-(2,4-dichlorothiazol-5-yl)-1-(pyridin-2-yl)prop-2-en-1-one] were 156 °C, 350.7 ± 2 µM (≈ 100 µg/mL), over 70 µg/mL and 14 ± 1 µM.
Taken in the same sequence, the figures for `O=C(/C=C/c1sc(Cl)nc1Cl)c1cccnc1` [Compound 18, (E)-3-(2,4-dichlorothiazol-5-yl)-1-(pyridin-3-yl)prop-2-en-1-one] were 162 °C, 701.4 ± 1 µM (≈ 200 µg/mL), over 70 µg/mL and 28.1 ± 1 µM.
On the same counts, the results for `O=C(/C=C/c1sc(Cl)nc1Cl)c1ccncc1` [Compound 19, (E)-3-(2,4-dichlorothiazol-5-yl)-1-(pyridin-4-yl)prop-2-en-1-one] are 177 °C, 350.7 ± 2 µM (≈ 100 µg/mL), over 70 µg/mL and 14 ± 1 µM.
As to `O=C(/C=C/c1sc(Cl)nc1Cl)c1nccs1` [Compound 20, (E)-3-(2,4-dichlorothiazol-5-yl)-1-(thiazol-2-yl)prop-2-en-1-one], the melting point is 127 °C. Moreover, in data set [1], the MIC amounted to 343.4 ± 1 µM (≈ 100 µg/mL). In data set [2], the IC50 was over 70 µg/mL. Further, in data set [3] (setting [4]), the IC50 is 6.86 ± 1 µM.
Regarding `CN(Cc1cnc2nc(N)nc(N)c2n1)c1ccc(C(=O)N[C@@H](CCC(=O)O)C(=O)O)cc1` [Methotrexate, reference compound], the figures for the IC50 in data set [2] and in data set [3] (setting [4]) were over 70 µg/mL and 11 ± 1 µM, respectively.
As to `NC(=O)c1cnccn1` [Pyrazinamide, reference compound], in data set [1], the MIC turned out to be 25.3 µM (≈ 3.12 µg/mL) and the “Mtb (H37Rv Strain) (MIC in µM)” value worked out at 25.34 ± 2 µM.
Regarding “(E)-1-(2,4-dichlorophenyl)-3-(2,4-dichlorothiazol-5-yl)prop-2-en-1-one [Compound 5]”, in data set [1], the “Mtb (H37Rv Strain) (MIC in µM)” value was 35.40 ± 2 µM. For the same molecule, the “Normal Liver Cell Line (L02) (IC50 in µg/mL)” value in data set [2] (same protocol as DU-145) is reported as over 70 µg/mL. Further, in data set [3] (setting [5]), the IC50 turned out to be 90.6 ± 1 µM.
